Experimental data from patent publication US8703951B2, “Synthesis of 4H-benzo[D]pyrrolo[1,2-A]thiazoles and indolizino[6,7-b]indole derivatives and their use as antitumor therapeutic agents” (Academia Sinica, priority 2011, dated 2014).
Where two headings read alike, the source gives them in different places. Each block holds one compound with its values, some of them ahead of it.

Experiments:
CCRF-CEM/VBL = test: In vitro cytotoxicity, XTT assay, CCRF-CEM/VBL; format: cell-based, human; settings: Table 5; for IC50: vinblastine-resistant subline, XTT, 72 h, read-out: Cell Growth inhibition (IC50 μM) CCRF-CEM/VBL; for fold of cross-resistant vs IC50 of the parent cell line, CCRF-CEM/VBL: number in brackets
From the text: (§1) Human colon carcinoma HCT-116 cells and human prostate adenocarcinoma PC-3 cells were obtained from American Type Culture Collection (ATCC, Rockville, Md.). Human mammary carcinoma (MX-1) tumor cells were obtained from MSKCC cell bank. The CCRF-CEM human lymphoblastic leukemia cells and their vinblastine resistant subline (CCRF-CEM/VBL, 680-fold resistance in vitro) were obtained from Dr. William Beck of the University of Illinois, Chicago, and CCRF-CEM/Taxol (330-fold resistance in vitro). Resistant cells CCRF-CEM/taxol were produced by exposing the parent cells to increasing sublethal concentration (IC50-IC90) of paclitaxel for six months.
(§2) In preparation for in vitro cytotoxicity assays, cells were cultured at an initial density 2−5×10^4 cells per milliliter. They were maintained in a 5% CO2-humidified atmosphere at 37° C. in RPMI medium 1640 (GIBCO/BRL) containing penicillin (100 units/mL), streptomycin (100 μg/mL, GIBCO/BRL), and 5% heat-inactivated FBS. For cells grown in suspension (such as CCRF-CEM and its sublines), cytotoxicity was measured, by using XTT microculture method^23 in 96-well microtiter plates.
(§3) The cytotoxic effects of the newly synthesized compounds were determined in T-cell acute lymphocytic leukemia (CCRF-CEM) and their resistant subcell lines (CCRF-CEM/Taxol and CCRF-CEM/VBL) by the XTT assay^24 and human solid tumor cells (i.e. breast carcinoma MX-1 and colon carcinoma HCT-116) by the SRB assay^25 in a 72 h incubation using a microplate spectrophotometer as described previously.^25 After the addition of phenazine methosulfate-XTT solution, incubated at 37° C. for 6 h and absorbance at 450 and 630 nm was detected on a microplate reader (EL 340). The cytotoxicity of the newly synthesized compounds against non-small cell lung carcinoma H1299, prostate cancer PC3, oral cancer OECM-1 and glioma U87 were determined by the Alamar blue assay^26 in a 72 h incubation using a microplate spectrophotometer as described previously. After the addition of alamar blue solution, it was incubated at 37° C. for 6 h. Absorbance at 570 and 600 nm was detected on a microplate reader. IC50 values were determined from dose-effect relationship at six or seven concentrations of each drug using the CompuSyn software by Chou and Martin^27 based on the median-effect principle and plot.^28,29 Ranges given for Cisplatin were mean±SE (n=4).

CCRF-CEM/Taxol = test: In vitro cytotoxicity, XTT assay, CCRF-CEM/Taxol; format: cell-based, human; settings: Table 5; for IC50: Taxol-resistant subline, XTT, 72 h, read-out: Cell Growth inhibition (IC50 μM) CCRF-CEM/Taxol; for fold of cross-resistant vs IC50 of the parent cell line, CCRF-CEM/Taxol: number in brackets
From the text: as §1, §2, §3

breast carcinoma MX-1 = test: In vitro cytotoxicity, SRB assay, MX-1; format: cell-based, human; settings: Homo sapiens
From the text: as §1, §2, §3

glioma U87 = test: In vitro cytotoxicity, Alamar blue assay, U87; format: cell-based, human
Method: (§4) Prostate cancer PC3, non-small cell lung carcinoma cells H1299, and human glioma cells U87 were purchased from the American Type Culture Collection (Rockville, Md.). OECM-1 (human gingival squamous cell carcinoma cells) was obtained from Dr C.-L. Meng (National Defense Medical College, Taiwan).^22
as §2, §3

oral cancer OECM-1 = test: In vitro cytotoxicity, Alamar blue assay, OECM-1; format: cell-based, human
Method: as §4, §2, §3

[1] = tested on: human lymphoblastic leukemia (CCRF-CEM); test: In vitro cytotoxicity, XTT assay, CCRF-CEM; format: cell-based
From the text: as §1, §2, §3

colon carcinoma HCT-116 = test: In vitro cytotoxicity, SRB assay, HCT-116; format: cell-based, human; settings: Homo sapiens
From the text: as §1, §2, §3

[2] = tested on: non-small cell lung carcinoma H1299; test: In vitro cytotoxicity, Alamar blue assay, H1299; format: cell-based, human
Method: as §4, §2, §3

linearized pBR322DNA = test: DNA cross-linking, alkaline agarose gel shift assay; format: biochemical; settings: 1, 10, and 20 μM; FIG. 8
Method: Formation of DNA cross-linking was analyzed by alkaline agarose gel electrophoresis assay. […] The reaction mixture was incubated at 37° C. for 2 h. At the end of reaction, the plasmid DNA was linearized by digestion with BamHI and followed by precipitation with ethanol. The DNA pellets were dissolved and denatured in alkaline buffer (0.5 N NaOH-10 mM EDTA). An aliquot of 20 μL of DNA solution (1000 ng) was mixed with 4 μL of 6× alkaline loading dye and then electrophoretically resolved on a 0.8% alkaline agarose gel with NaOH-EDTA buffer at 4° C. The electrophoresis was carried out at 18 V for 22 h. After staining the gels with an ethidium bromide solution, the DNA was then visualized under UV light.

prostate cancer PC3 = test: In vitro cytotoxicity, Alamar blue assay, PC3; format: cell-based, human; settings: Table 6, 72 h
Method: as §4, §2, §3

[3] = Homo sapiens, OECM1, Table 6, 72 h
[4] = Homo sapiens, CCRF-CEM, Table 5, 72 h incubation, read-out: Cell Growth inhibition (IC50 μM) CCRF-CEM
[5] = Homo sapiens, NCI-H1299, Table 6, 72 h
[6] = Table 5, 72 h incubation, read-out: Cell Growth inhibition (IC50 μM) CCRF-CEM
[7] = Homo sapiens, CCRF-CEM, Table 7, 72 h, read-out: IC50 (μM) CCRF/CEM

SMILES: OCc1c(CO)c2sc3ccccc3n2c1-c1ccc(Cl)cc1 [Compound 18c, (1-(4-Chlorophenyl)benzo[d]pyrrolo[2,1-b]thiazole-2,3-diyl)dimethanol]
IC50 (CCRF-CEM/VBL; Homo sapiens, CCRF-CEM): 4.09 ± 0.025 µM
fold of cross-resistant vs IC50 of the parent cell line, CCRF-CEM/VBL (CCRF-CEM/VBL): 1.56 ×
IC50 (CCRF-CEM/Taxol; Homo sapiens, CCRF-CEM): 5.22 ± 0.026 µM
fold of cross-resistant vs IC50 of the parent cell line, CCRF-CEM/Taxol (CCRF-CEM/Taxol): 2.00 ×
IC50 (breast carcinoma MX-1; Table 6, 72 h): 10.4 ± 0.003 µM
IC50 (glioma U87; Homo sapiens, Table 6, 72 h): 20.7 ± 2.26 µM
IC50 (oral cancer OECM-1; [3]): 14.6 ± 1.13 µM
IC50 [1, 4]: 2.61 ± 0.03 µM
IC50 (colon carcinoma HCT-116; HCT-116, Table 6, 72 h): 9.26 ± 0.049 µM
IC50 [2, 5]: 12.4 ± 0.44 µM
DNA interstrand cross-linking (linearized pBR322DNA): able to bind covalently (interstrand cross-linking) with DNA
IC50 (prostate cancer PC3; Homo sapiens): 20.4 ± 3.43 µM

SMILES: COc1ccc(-c2c(CO)c(CO)c3sc4ccccc4n23)cc1 [Compound 18g, (1-(4-Methoxyphenyl)benzo[d]pyrrolo[2,1-b]thiazole-2,3-diyl)dimethanol]
IC50 (CCRF-CEM/VBL; Homo sapiens, CCRF-CEM): 2.63 ± 0.031 µM
fold of cross-resistant vs IC50 of the parent cell line, CCRF-CEM/VBL (CCRF-CEM/VBL): 2.30 ×
IC50 (CCRF-CEM/Taxol; Homo sapiens, CCRF-CEM): 2.17 ± 0.02 µM
fold of cross-resistant vs IC50 of the parent cell line, CCRF-CEM/Taxol (CCRF-CEM/Taxol): 1.9 ×
IC50 (glioma U87; Homo sapiens, Table 6, 72 h): 18.1 ± 3.71 µM
IC50 (oral cancer OECM-1; [3]): 5 ± 0.78 µM
IC50 [1, 4]: 1.13 ± 0.09 µM
IC50 [2, 5]: 9.94 ± 1.87 µM
DNA interstrand cross-linking (linearized pBR322DNA): able to bind covalently (interstrand cross-linking) with DNA
IC50 (prostate cancer PC3; Homo sapiens): 8.81 ± 1.2 µM

SMILES: CCNC(=O)OCc1c(COC(=O)NCC)c2sc3ccccc3n2c1-c1ccc(OC)cc1 [Compound 19g, (1-(4-Methoxyphenyl)benzo[d]pyrrolo[2,1-b]thiazole-2,3-diyl)bis(methylene)bis(ethylcarbamate)]
fold of cross-resistant vs IC50 of the parent cell line, CCRF-CEM/VBL (CCRF-CEM/VBL): 2.20 ×
IC50 (CCRF-CEM/VBL): 0.42 ± 0.003 µM
IC50 (CCRF-CEM/Taxol): 0.37 ± 0.001 µM
fold of cross-resistant vs IC50 of the parent cell line, CCRF-CEM/Taxol (CCRF-CEM/Taxol): 1.90 ×
IC50 (glioma U87; Table 6, 72 h): 29.5 ± 4.86 µM
IC50 (oral cancer OECM-1; Table 6, 72 h): 9.39 ± 1.9 µM
IC50 [1, 6]: 0.19 ± 0.002 µM
IC50 ([2]; Table 6, 72 h): 8.85 ± 1.53 µM
DNA interstrand cross-linking (linearized pBR322DNA): able to bind covalently (interstrand cross-linking) with DNA
IC50 (prostate cancer PC3): 17.9 ± 3.59 µM

SMILES: COc1ccc(-c2c(COC(=O)NC(C)C)c(COC(=O)NC(C)C)c3sc4ccccc4n23)cc1 [Compound 20g, (1-(4-Methoxyphenyl)benzo[d]pyrrolo[2,1-b]thiazole-2,3-diyl)bis(methylene)bis(iso-propylcarbamate)]
fold of cross-resistant vs IC50 of the parent cell line, CCRF-CEM/VBL (CCRF-CEM/VBL): 1.47 ×
IC50 (CCRF-CEM/VBL): 0.25 ± 0.008 µM
IC50 (CCRF-CEM/Taxol): 0.17 ± 0.004 µM
fold of cross-resistant vs IC50 of the parent cell line, CCRF-CEM/Taxol (CCRF-CEM/Taxol): 1.17 ×
IC50 (glioma U87; Table 6, 72 h): 60.9 ± 13.4 µM
IC50 (oral cancer OECM-1; Table 6, 72 h): 7.23 ± 1.57 µM
IC50 [1, 6]: 0.14 ± 0.002 µM
IC50 ([2]; Table 6, 72 h): 8.19 ± 1.74 µM
DNA interstrand cross-linking (linearized pBR322DNA): able to bind covalently (interstrand cross-linking) with DNA
IC50 (prostate cancer PC3): 17.5 ± 0.8 µM

Further lines, with some results ahead:

melting point: 122 to 123 °C
SMILES: Cn1c2c(c3ccccc31)Cc1c(CO)c(CO)c(-c3ccccc3)n1C2 [Compound 26b, (3-(phenyl)-6-methyl-6,11-dihydro-5H-indolizino[6,7-b]indole-1,2-diyl)dimethanol]

melting point: 240 to 241 °C
SMILES: Cn1c2c(c3ccccc31)Cc1c(CO)c(CO)c(-c3ccc(F)cc3)n1C2 [Compound 26c, (3-(4-Fluorophenyl)-6-methyl-6,11-dihydro-5H-indolizino[6,7-b]indole-1,2-diyl)dimethanol]

melting point: 238 to 239 °C
SMILES: Cn1c2c(c3ccccc31)Cc1c(CO)c(CO)c(-c3ccc(Cl)cc3)n1C2 [Compound 26d, (3-(4-Chlorophenyl)-6-methyl-6,11-dihydro-5H-indolizino[6,7-b]indole-1,2-diyl)-dimethanol]
IC50 (breast carcinoma MX-1; Table 7, 72 h): 11.3 ± 0.42 µM
IC50 [1, 7]: 4.58 ± 0.378 µM
IC50 (colon carcinoma HCT-116; HCT-116, Table 7, 72 h): 13.49 ± 0.088 µM

melting point: 195 to 196 °C
SMILES: Cn1c2c(c3ccccc31)Cc1c(CO)c(CO)c(-c3ccc(F)c(F)c3)n1C2 [Compound 26e, (3-(3,4-Difluorophenyl)-6-methyl-6,11-dihydro-5H-indolizino[6,7-b]indole-1,2-diyl)dimethanol]

melting point: 200 to 201 °C
SMILES: Cc1c(CO)c(CO)c2n1Cc1c(c3ccccc3n1C)C2 [Compound 33a, [3,6-Dimethyl-6,11-dihydro-5H-indolizino[6,7-b]indole-1,2-diyl]dimethanol]
IC50 (breast carcinoma MX-1; Table 7, 72 h): 0.22 ± 0.019 µM
IC50 (glioma U87; Homo sapiens, Table 7, 72 h): 6.54 ± 2.16 µM
IC50 [1, 7]: 0.042 ± 0.0003 µM
IC50 (colon carcinoma HCT-116; HCT-116, Table 7, 72 h): 0.12 ± 0.001 µM
IC50 ([2]; Homo sapiens, NCI-H1299, Table 7, 72 h): 3.96 ± 1.79 µM
